Reference: ChEMBL document CHEMBL1132186, “Structure-based design of selective inhibitors of dihydrofolate reductase: synthesis and antiparasitic activity of 2, 4-diaminopteridine analogues with a bridged diarylamine side chain” (J Med Chem, 1999)
pIC50: −log10 of the molar value.

What was measured:
Dihydrofolate reductase [1] = target: T1, Dihydrofolate reductase (Pneumocystis carinii, UniProt P16184)
T1 sequence (P16184 whole entry): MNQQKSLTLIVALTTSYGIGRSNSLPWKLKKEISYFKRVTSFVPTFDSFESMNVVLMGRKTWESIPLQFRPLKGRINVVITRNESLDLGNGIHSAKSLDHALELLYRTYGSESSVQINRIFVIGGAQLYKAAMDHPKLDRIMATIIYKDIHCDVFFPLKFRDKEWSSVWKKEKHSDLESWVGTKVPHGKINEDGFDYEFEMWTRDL
Description: Inhibitory activity against DHFR (Dihydrofolate reductase) from Pneumocystis carinii.

Dihydrofolate reductase [2] = target: T2, Dihydrofolate reductase (Mycobacterium avium, UniProt O30463); assay: Inhibitory activity against DHFR (Dihydrofolate reductase) from Mycobacterium avium
T2 sequence (O30463 whole entry): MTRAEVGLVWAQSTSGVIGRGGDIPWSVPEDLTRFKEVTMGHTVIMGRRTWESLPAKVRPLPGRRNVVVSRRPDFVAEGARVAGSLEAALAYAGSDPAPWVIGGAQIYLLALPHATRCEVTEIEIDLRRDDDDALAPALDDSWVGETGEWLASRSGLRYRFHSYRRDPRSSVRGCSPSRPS

[3] = Ratio of Dihydrofolate reductase inhibitory activity in rat to Toxoplasma gondii
Dihydrofolate reductase [4] = target: T3, Dihydrofolate reductase (Rattus norvegicus, UniProt Q920D2); assay: Inhibitory activity against DHFR (Dihydrofolate reductase) from Rat liver
T3 sequence (Q920D2 whole entry): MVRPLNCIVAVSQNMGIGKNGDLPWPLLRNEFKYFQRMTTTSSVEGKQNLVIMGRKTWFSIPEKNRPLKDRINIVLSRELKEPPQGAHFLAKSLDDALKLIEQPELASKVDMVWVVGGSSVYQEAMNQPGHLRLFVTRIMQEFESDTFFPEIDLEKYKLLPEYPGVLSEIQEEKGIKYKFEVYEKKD

[5] = Ratio of Dihydrofolate reductase inhibitory activity in rat to Pneumocystis carinii
[6] = Ratio of Dihydrofolate reductase inhibitory activity in rat to Mycobacterium avium
[7] = target: T4, Bifunctional dihydrofolate reductase-thymidylate synthase (Toxoplasma gondii, UniProt Q07422); assay: Inhibitory activity against DHFR (Dihydrofolate reductase) from Toxoplasma gondii.
T4 sequence (Q07422 whole entry): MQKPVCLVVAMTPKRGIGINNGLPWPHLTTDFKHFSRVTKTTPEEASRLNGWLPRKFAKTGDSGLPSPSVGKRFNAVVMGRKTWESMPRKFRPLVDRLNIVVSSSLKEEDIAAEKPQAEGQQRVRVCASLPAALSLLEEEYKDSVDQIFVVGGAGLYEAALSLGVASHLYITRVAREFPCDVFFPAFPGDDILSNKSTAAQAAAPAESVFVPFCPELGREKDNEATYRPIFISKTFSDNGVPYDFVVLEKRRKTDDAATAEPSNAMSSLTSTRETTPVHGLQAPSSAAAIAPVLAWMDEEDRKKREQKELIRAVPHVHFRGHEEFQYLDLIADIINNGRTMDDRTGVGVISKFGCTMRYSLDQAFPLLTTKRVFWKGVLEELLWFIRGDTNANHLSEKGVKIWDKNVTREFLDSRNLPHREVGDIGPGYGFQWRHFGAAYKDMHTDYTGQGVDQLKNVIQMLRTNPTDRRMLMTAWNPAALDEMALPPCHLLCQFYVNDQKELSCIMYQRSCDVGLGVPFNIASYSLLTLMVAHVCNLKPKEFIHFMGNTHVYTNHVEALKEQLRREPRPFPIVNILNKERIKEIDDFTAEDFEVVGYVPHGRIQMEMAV

Row | SMILES | pIC50 (Dihydrofolate reductase [1]) | pIC50 (Dihydrofolate reductase [2]) | Selectivity ratio [3] | pIC50 (Dihydrofolate reductase [4]) | Selectivity ratio [5] | Selectivity ratio [6] | pIC50 [7]
1 | Nc1nc(N)c2nc(CN3c4ccccc4Cc4ccccc43)cnc2n1 | 7.38 | 7.77 | 0.93 | 7.57 | 0.64 | 1.6 | 7.54
2 | Nc1nc(N)c2nc(CN3c4ccccc4Sc4ccccc43)cnc2n1 | 6.92 | 7.54 | 1.8 | 6.70 | 1.7 | 6.9 | 6.96
3 | Nc1nc(N)c2nc(CN(c3ccccc3)c3ccccc3)cnc2n1 | – | 5.43 | 3.1 | 5.40 | 0.82 | 1.1 | –
4 | Nc1nc(N)c2nc(CN3c4ccccc4Oc4ccccc43)cnc2n1 | 5.47 | – | – | 4.89 | – | – | 5.66
5 | Nc1nc(N)c2nc(CN3c4ccccc4C=Cc4ccccc43)cnc2n1 | – | 7.92 | 102 | – | 21 | 367 | 7.37
6 | Nc1nc(N)c2nc(Cn3c4ccccc4c4ccccc43)cnc2n1 | 7.00 | – | 4.6 | 7.26 | 0.55 | – | 7.92
7 | Nc1nc(N)c2nc(CN3c4ccccc4CCc4ccccc43)cnc2n1 | – | – | 5.6 | – | 3.6 | – | –
